# Test results taken from PubChem BioAssay AID687032 (Broad Institute, 2013).
# Records with an inconclusive call do not appear.
# Test system: IOSE-T80 viability, CellTiterGlo ATP luminescence, 96 h
# Test: IOSE-T80 viability loss, PAX8-independent line – cell-based, cherry-pick, selectivity assay for PAX8 inhibitor project, dose response (AID 687032)
row,SMILES,AC50 [nM]
1,C[C@@H]1CCCCO[C@H](CN(C)C(=O)Cc2ccccc2)[C@@H](C)CN([C@@H](C)CO)C(=O)c2cc(NC(=O)Nc3ccc(C(F)(F)F)cc3)ccc2O1,< 260
2,Cc1ccc2c(c1)c1c3n2CCN(CC(N)=O)C3CCC1 (stereo not drawn),10200
3,COc1ccc(S(=O)(=O)Nc2ccc3c(c2)C(=O)N([C@H](C)CO)C[C@H](C)[C@H](CN(C)Cc2ccc(C(F)(F)F)cc2)OCCCC[C@H](C)O3)cc1,3450
4,Cn1c(SCC(=O)c2ccccc2)nnc1-c1ccccn1,< 260
5,C[C@H](CO)N1C[C@H](C)[C@@H](CN(C)C(=O)Nc2ccnc(N3CCOCC3)c2)OCc2cnnn2CCCC1=O,< 260
6,CCOc1ccc(-n2c(=S)sc3c(=O)[nH]c(SCC(=O)NCC4CCCO4)nc32)cc1 (stereo not drawn),< 260
7,COc1ccc(NC(=O)Nc2ccc3c(c2)C(=O)N([C@@H](C)CO)C[C@@H](C)[C@@H](CN(C)CC2CCCCC2)OCCCC[C@@H](C)O3)cc1,< 260
8,O=C(O)c1cccc(COc2ccc3c(c2)CCC3)c1,< 260
9,COc1ccc(F)cc1-c1cc(NC=O)c2ncc(-c3cc(OC)c(OC)c(OC)c3)n2c1,< 260
10,C[C@@H]1CN([C@H](C)CO)C(=O)Cc2cc(NC(=O)Nc3ccc(F)cc3)ccc2O[C@H]1CN(C)Cc1ccc(Cl)c(Cl)c1,< 260
11,COc1ccc(S(=O)(=O)Nc2ccc3c(c2)C(=O)N([C@H](C)CO)C[C@H](C)[C@@H](CN(C)Cc2ccc(Cl)c(Cl)c2)OCCCC[C@@H](C)O3)cc1,6540
12,COc1cc(/C=N/O)ccc1OCc1ccc(C(=O)O)cc1,9950
13,C[C@H](CO)N1C[C@H](C)[C@H](CN(C)Cc2ccc(C(F)(F)F)cc2)OCCCC[C@H](C)Oc2ccc(NS(=O)(=O)c3ccccc3)cc2C1=O,< 260
14,O=C(NCc1ccco1)C1CCCN(S(=O)(=O)c2ccc(Br)cc2)C1 (stereo not drawn),< 260
15,CC(=O)[C@@]1(O)Cc2c(O)c3c(c(O)c2[C@H](O[C@H]2C[C@H](N)[C@H](O)[C@H](C)O2)C1)C(=O)c1ccccc1C3=O,8800
16,Cn1c(CCN2CCCC2)nc2cc(NS(=O)(=O)c3ccccc3)ccc21,< 260
17,COc1ccc(-n2nc3c(N4CCC(C(=O)NCc5cccc(C)c5)CC4)nnc(C)c3c2C)cc1,< 260
18,COc1ccccc1C#Cc1ccc2c(c1)O[C@H](CN(C)Cc1cccnc1)[C@H](C)CN([C@@H](C)CO)S2(=O)=O,3050
19,C[C@@H]1CN([C@@H](C)CO)C(=O)Cc2cc(NS(=O)(=O)c3ccc(Cl)cc3)ccc2O[C@H]1CN(C)Cc1ccc(Oc2ccccc2)cc1,< 260
20,COc1ccc2c(COC(=O)CNC(=O)C34CC5CC(CC(C5)C3)C4)cc(=O)oc2c1,< 260
21,C[C@H](CO)N1C[C@H](C)[C@@H](CN(C)S(=O)(=O)c2ccc(Cl)cc2)OCCCC[C@H](C)Oc2ccc(NS(=O)(=O)c3ccc(Cl)cc3)cc2C1=O,< 260

row,SMILES,AC50 [nM]
1,CCOC(=O)c1c(-c2ccc(F)cc2)csc1NC(=O)CN1C(=O)NC2(CCCCC2C)C1=O (stereo not drawn),9070
2,CCOC(=O)Nc1ccc2c(c1)N(C(=O)CCN(CC)CC)c1ccccc1S2=O (stereo not drawn),< 260
3,O=C(Nc1ccccc1)NN(C(=O)CCl)c1ccccc1,8600
4,O=C(Nc1cccc(NC(=O)c2cccs2)c1)c1ccc([N+](=O)[O-])o1,8620
5,C[C@@H]1CN([C@H](C)CO)C(=O)c2cc(NC(=O)Nc3ccc(F)cc3)ccc2O[C@@H](C)CCCCO[C@@H]1CN(C)Cc1ccc2c(c1)OCO2,< 260
6,O=C(Nc1ccc(Cl)c(Cl)c1)N[C@@H]1CC[C@H](CCn2cc(C3CCCCC3)nn2)O[C@H]1CO,< 260
7,CCCNC(=O)Nc1ccc2c(c1)OC[C@H](C)N(Cc1ccc(-c3ccccn3)cc1)C[C@@H](C)[C@@H](OC)CN(C)C2=O,< 260
8,C[C@H]1CCCCO[C@H](CN(C)Cc2ccc(C(F)(F)F)cc2)[C@@H](C)CN([C@@H](C)CO)C(=O)c2cc(NS(=O)(=O)c3ccc(Cl)cc3)ccc2O1,< 260
9,COc1ccccc1C(=O)Nc1nc2ccccc2[nH]1,9810
10,C[C@@H]1CCCCO[C@@H](CN(C)Cc2ccc(C(F)(F)F)cc2)[C@@H](C)CN([C@@H](C)CO)C(=O)c2cc(NS(=O)(=O)c3ccc(F)cc3)ccc2O1,< 235
11,Cc1ccc(S(=O)(=O)Nc2cccc3c2O[C@@H](CN(C)Cc2ccc(Oc4ccccc4)cc2)[C@@H](C)CN([C@H](C)CO)C3=O)cc1,< 260
12,CC1CN(CC(O)COC(c2ccccc2)c2ccccc2)CC(C)O1 (stereo not drawn),< 260
13,CCC(c1nnnn1Cc1ccccc1)N1CCC(n2c(=O)[nH]c3ccccc32)CC1 (stereo not drawn),< 260
14,C[C@@H]1CN([C@H](C)CO)C(=O)c2cc(NC(=O)Nc3ccccc3)ccc2O[C@@H](C)CCCCO[C@@H]1CN(C)Cc1ccc(C(F)(F)F)cc1,< 260
15,COc1cccc(-c2ccc([C@H]3[C@@H](CO)N(C(=O)Cc4ccccc4)[C@H]3C#N)cc2)c1,< 260
16,C[C@@H]1CN([C@H](C)CO)S(=O)(=O)c2ccc(C#CC3CCCC3)cc2O[C@@H]1CN(C)C(=O)Cc1ccncc1,< 260
17,O=C(NC12CC3CC(CC(C3)C1)C2)c1ccc([N+](=O)[O-])o1,< 260
18,COc1cc(C2C3=C(COC3=O)Oc3cc4c(cc32)OCO4)cc(OC)c1O (stereo not drawn),< 260
19,Cc1ccsc1/C=N/Nc1cccc(C(=O)O)c1,17300
20,FC(F)(F)c1nnc2c(Sc3ccccn3)nc3ccccc3n12,8850
21,C[C@@H]1CCCCO[C@@H](CN(C)C(=O)Nc2cccc3ccccc23)[C@H](C)CN([C@H](C)CO)C(=O)c2cc(NS(=O)(=O)c3ccccc3)ccc2O1,< 260

row,SMILES,AC50 [nM]
1,C[C@H](CO)N1C[C@H](C)[C@H](CN(C)S(=O)(=O)c2ccc(Cl)cc2)OCCCC[C@H](C)Oc2ccc(NC(=O)Nc3ccc(C(F)(F)F)cc3)cc2C1=O,< 260
2,CCCn1c(C)cc(C(=O)CN2C(=O)c3ccccc3S2(=O)=O)c1C,< 260
3,Cc1cc(Nc2ccc3c(c2)OCCO3)c2ccccc2n1,< 260
4,C[C@@H]1CCCCO[C@@H](CN(C)Cc2ccc(Cl)c(Cl)c2)[C@H](C)CN([C@H](C)CO)C(=O)c2cc(NC(=O)Nc3ccc(C(F)(F)F)cc3)ccc2O1,35600
5,C#CCN(C[C@@H]1[C@@H](OC(=O)NCC2CCCCC2)[C@@H](OC(=O)NCC2CCCCC2)Cn2c(=O)ccc(=O)n21)S(=O)(=O)c1ccc(C)cc1,< 260
6,C[C@@H]1CCCCO[C@@H](CN(C)Cc2ccc(C(F)(F)F)cc2)[C@@H](C)CN([C@@H](C)CO)C(=O)c2cc(NS(=O)(=O)c3ccccc3)ccc2O1,< 260
7,C[C@@H]1CCCCO[C@H](CN(C)Cc2ccc(C(F)(F)F)cc2)[C@H](C)CN([C@H](C)CO)C(=O)c2cc(NS(=O)(=O)c3cccs3)ccc2O1,< 260
8,Cc1ccc(-c2csc3ncnc(Sc4nnc(CN5CCCCCC5=O)o4)c23)cc1,8670
9,C[C@H](CO)N1C[C@H](C)[C@@H](CN(C)CC2CCCCC2)Oc2c(NC(=O)CCCCCC(=O)Nc3ccccc3N)cccc2C1=O,< 260
10,CCCC(=O)NC(c1ccc(C(C)C)cc1)c1ccc2cccnc2c1O (stereo not drawn),< 260
11,O=C(c1cc([N+](=O)[O-])ccc1N1CCOCC1)N1CCN(c2ccccc2)CC1,< 260
12,Cc1ccc(S(=O)(=O)N(C)C[C@@H]2Oc3cc(C#Cc4ccncc4)ccc3S(=O)(=O)N([C@H](C)CO)C[C@H]2C)cc1,3050
13,Cc1ccc(C(=O)N/C(=C\c2ccc(-c3ccc(Br)cc3)o2)C(=O)NCCCN(C)C)cc1,9400
14,O=[N+]([O-])c1cccnc1S(=O)(=O)c1ccccc1,< 260
15,Cc1ccc(S(=O)(=O)N(C)C[C@@H]2Oc3cc(C#Cc4ccncc4)ccc3S(=O)(=O)N([C@H](C)CO)C[C@@H]2C)cc1,24200
16,Nc1nc(=S)c2[nH]cnc2[nH]1,< 260
17,COc1ccc(Cn2cc3c(-c4ccc(F)cc4)nnc-3c3cc(OC)c(OC)cc32)cc1,8490
18,C[C@@H]1CCCCO[C@H](CN(C)C(=O)C2CCCCC2)[C@@H](C)CN([C@@H](C)CO)C(=O)c2cc(NC(=O)Nc3ccc(F)cc3)ccc2O1,< 260
19,Cc1ccc(NC(=O)Cn2ncc(Cl)c(Cl)c2=O)cc1S(=O)(=O)N1CCCCC1,< 260
20,C[C@H]1CCCCO[C@H](CN(C)Cc2ccc(C(F)(F)F)cc2)[C@@H](C)CN([C@@H](C)CO)C(=O)c2cc(NC(=O)c3ccccc3)ccc2O1,32100
21,C(=Cc1cnc2ccccc2n1)c1ccc2c(c1)OCO2,7890

row,SMILES,AC50 [nM]
1,O=C(C[C@H]1CC[C@H]2[C@@H](COC[C@@H](O)CN2Cc2ccc(Oc3ccccc3)cc2)O1)N1CCCCC1,< 260
2,Cc1ccccc1CNC(=O)C1CCCN(c2nnc(C)c3c(C)n(-c4ccccc4)nc23)C1 (stereo not drawn),< 260
3,C[C@H](CO)N1C[C@H](C)[C@H](CN(C)S(=O)(=O)c2ccc(Cl)cc2)OCCCC[C@H](C)Oc2ccc(NS(=O)(=O)c3ccc(F)cc3)cc2C1=O,< 260
4,CC(C)CCCCCCCCCCCCC(=O)NCC(=O)NC1C(C)OC(Nc2ncnc3nc[nH]c23)C(O)C1O (stereo not drawn),< 260
5,CCC(C)(O)C(=O)OC1C(=O)OC2CC3C(C)=CC(=O)C(O)C3(C)C3C4(O)OCC23C1C(C)C4O (stereo not drawn),8840
6,C=C(C)c1nc(Oc2ccccc2)nc(Oc2ccccc2)n1,< 260
7,CC(C)(C)[C@H](N)C(=O)N[C@H]1CCC2C3CC=C4C[C@@H](O)CC[C@]4(C)C3CC[C@@]21C (stereo partly drawn),< 260
8,Cc1nnc(N/N=C/c2cc(C)n(-c3ccc(F)cc3)c2C)n1N,10200
9,O=C(Cc1nnc(NC(=O)c2ccccc2)s1)N/N=C/c1ccco1,< 260
10,Cn1nnnc1Sc1ncnc2scc(-c3cccc(S(C)(=O)=O)c3)c12,8510
11,CCOc1ccc(NC(=O)Nc2cc(OCC(F)(F)F)cc(OCC(F)(F)F)c2)cc1,8810
12,COc1ccc(CC2C(=O)NC(C)C(=O)N(C)C3Cc4ccc(cc4)Oc4cc(ccc4O)CC(C(=O)NC(C)C(=O)NC(C)C(=O)N2C)N(C)C3=O)cc1 (stereo not drawn),27800
13,O=S(=O)(NCC1CCCO1)c1cnc(Cl)c(Br)c1 (stereo not drawn),< 260
14,Cc1cnc(NC(=O)CSc2nnc(C)n2N)s1,< 260
15,COc1cc(OC)cc(C(=O)NCC(=O)OCC(=O)c2cc(C)n(Cc3ccco3)c2C)c1,< 260
16,COc1ccc(S(=O)(=O)Nc2ccc3c(c2)CC(=O)N([C@@H](C)CO)C[C@@H](C)[C@@H](CN(C)Cc2ccc(-c4ccccc4)cc2)O3)cc1,< 260
17,COc1cc(-c2cnc3c(NC=O)cc(-c4ccccc4)cn23)cc(OC)c1OC,< 260
18,O=C(CCC(=O)c1ccccc1)NCCc1c[nH]c2ccccc12,< 260
19,C[C@]12CCC3C(CCC4=CC(O)CC[C@@]43/C=N/O)C1(O)CCC2C1=CC(=O)OC1 (stereo partly drawn),< 260
20,O=C1c2cccc3cc([N+](=O)[O-])cc(c23)C(=O)N1CCN1CCCC1,< 260
